Data on 1 compound can be found in BindingDB's records for doi:10.1016/s0960-894x(03)00584-5 (Schering-Plough Research Institute, 2003).

The assay concerns the target Hepatitis C virus NS3 protease (Hepatitis C virus). As to the kind of experiment: Inhibitory activity evaluated in the HCV protease binding assay.

As a reminder, the IC50 is the concentration at which inhibition is half-maximal. Low values mean higher potency, high ones lower potency. Turning to `O=C1OC[C@H]2O[C@@H](Oc3cc(O)c4c(c3)OC(c3ccccc3)CC4=O)[C@H](O)[C@@H](O)[C@@H]2OC(=O)c2cc(O)c(O)c(O)c2-c2c1cc(O)c(O)c2O` (stereo partly specified) [2,3,4,5,6,7,14,15-octahydroxy-13-(5-hydroxy-4-oxo-2-phenyl-3,4-dihydro-2H-7-chromenyloxy)-9,11,11a,13,14,15,15a,17-octahydrodibenzo[g,i]pyrano[3,2-b][1,5]dioxacycloundecine-9,17-dione], the IC50 amounted to 2.8 µM.
